Laboratory results: PubChem BioAssay (NCI)
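Test compounds were applied to cells in 96-well plates for 48 hours at 5 doses. GI50 is the concentration that inhibits growth by half. Definition used: TGI = concentration required for complete inhibition of growth.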

Key:
Assay in all cases: growth of human tumour cells (NCI), 48 h
DU-145 prostate = system: DU-145 prostate
OVCAR-3 ovarian = system: OVCAR-3 ovarian
SN12C renal = system: SN12C renal
786-0 renal = system: 786-0 renal
NCI-H522 lung = system: NCI-H522 lung
COLO 205 colon = system: COLO 205 colon
PC-3 prostate = system: PC-3 prostate
SNB-75 CNS = system: SNB-75 CNS
SK-MEL-2 melanoma = system: SK-MEL-2 melanoma
K-562 leukemia = system: K-562 leukemia

| SMILES | TGI (DU-145 prostate) [µM] | TGI (OVCAR-3 ovarian) [µM] | TGI (SN12C renal) [µM] | TGI (786-0 renal) [µM] | TGI (NCI-H522 lung) [µM] | TGI (COLO 205 colon) [µM] | TGI (PC-3 prostate) [µM] | TGI (SNB-75 CNS) [µM] | TGI (SK-MEL-2 melanoma) [µM] | TGI (K-562 leukemia) [µM] | GI50 (DU-145 prostate) [µM] | GI50 (OVCAR-3 ovarian) [µM] | GI50 (NCI-H522 lung) [µM] | GI50 (COLO 205 colon) [µM] | GI50 (SNB-75 CNS) [µM] | GI50 (K-562 leukemia) [µM] | GI50 (SK-MEL-2 melanoma) [µM] |
| --- | --- | --- | --- | --- | --- | --- | --- | --- | --- | --- | --- | --- | --- | --- | --- | --- | --- |
| CCCCCCCCCCCCC(=O)NCC(=O)NC(Cc1ccccc1)C(=O)Oc1ccc([N+](=O)[O-])cc1 (stereo unspecified) | > 100 | > 100 | > 100 | > 100 | 81 | 31.9 | > 100 | > 100 | > 100 |  |  |  |  |  |  |  |  |
| CNc1ccc2nc(-c3ccc(OC(=O)N(C)C)cc3)cn2c1 | > 100 | > 100 | 27.2 | 27.6 | 28.8 | 32.2 | 29.5 |  | 31.8 | 49.7 |  |  |  |  |  |  |  |
| N#Cc1c(=O)c2cccnc2n2c1[nH]c1ccccc12 | > 100 | > 100 | > 100 | > 100 |  | > 100 | > 100 | > 100 | > 100 | > 100 |  |  |  |  |  |  |  |
| C=C1C(=O)O[C@H]2C1[C@H](OC(=O)/C(C)=C\COC(C)=O)C[C@]1(CO1)[C@@H]1[C@H](O)[C@H]3O[C@@]3(C)[C@@H]12 (stereo partly specified) |  | 44.8 | > 57.1 |  | 22.8 | 21.9 |  | > 96.2 | 48.8 | 27 |  |  |  |  |  |  |  |
| Cc1ccc(Nc2nc(=O)[nH]c(=O)[nH]2)cc1N | > 100 | > 100 | > 100 | > 100 | > 100 | > 100 | > 100 | > 100 | > 100 |  |  |  |  |  |  |  |  |
| CC1(C)CC(=O)C(/C=N/c2nc(-c3ccc(Br)cc3)cs2)=C(O)C1 | > 100 | 62.1 | > 100 | > 100 |  | 99.2 | > 100 | 72.8 | 48.4 |  |  |  |  |  |  |  |  |
| CC(=O)Oc1ccc2cc(Oc3ccc(Cl)cc3)c(=O)oc2c1 | > 100 | 57.8 | > 100 | > 100 | 89.6 |  | 78.7 | > 100 |  |  |  |  |  |  |  |  |  |
| CN(C)c1ccc(-c2nc(-c3cc4c(ccc5ccccc54)oc3=O)cs2)cc1 | > 100 |  | > 100 | > 100 | > 100 | > 100 | > 100 | > 100 | > 100 | > 100 |  |  |  |  |  |  |  |
| Cc1ccc2ccccc2c1CC1S(=O)(=O)OCCOS1(=O)=O | 24.1 | 19.5 | 23.7 | 30.3 |  | 6.1 | 24.3 |  | 37.9 | 34 |  |  |  |  |  |  |  |
| CCOC(=O)C1C/C(C)=C(/C)SCCCS1 (stereo unspecified) | > 100 | > 100 | > 100 | > 100 | 41.5 | > 100 | > 100 |  | > 100 | > 100 |  |  |  |  |  |  |  |
| COc1ccc(Cn2nc(OCc3ccccn3)c3cc([N+](=O)[O-])ccc32)cc1 | > 100 | > 100 | > 100 | > 100 | > 100 |  | > 100 |  | > 100 | > 100 |  |  |  |  |  |  |  |
| Cn1c(N)c(/C=N/NC(=O)CC#N)c(=O)n(C)c1=O | > 100 | > 100 | > 100 | > 100 | > 100 | > 100 | > 100 | > 100 | > 100 |  |  |  |  |  |  |  |  |
| CC(C)=CC(=O)O[C@@H]1CC(C)(C)CC2C3=CCC4[C@]56CC[C@](O)(OC5)C(C)(C)C6CC[C@@]4(C)C3(C)CC[C@]21C(=O)O (stereo partly specified) | > 100 | > 100 | > 100 | > 100 | > 100 | 50.4 | > 100 |  | > 100 | > 100 |  |  |  |  |  |  |  |
| Cc1nc2c(n1Cc1ccc(Cl)cc1)C(=O)c1ccccc1C2=O |  | > 75 | > 75 | > 75 | > 75 | > 75 |  | > 75 | > 75 | > 75 |  |  |  |  |  |  |  |
| C/C(=N\N=C(N)N)c1c(C(=O)OCCCCCCOC(=O)c2nc3sccn3c2/C(C)=N/N=C(N)N)nc2sccn12 |  |  | > 100 | > 100 | > 100 | > 100 | > 100 | > 100 | > 100 | 50.1 |  |  |  |  |  |  |  |
| C#CC(C)(C)Oc1cc(OC)c2c(=O)c3ccccc3n(C)c2c1 | 55.8 |  | 49.9 | > 100 |  | 33.7 | 40.8 | 70.1 | 35.7 | 55.5 |  |  |  |  |  |  |  |
| CC1=NN(c2nc(N)nc(/C(C#N)=C/c3ccncc3)n2)C(C)(C)C1 | > 100 |  |  | > 100 |  | > 100 | > 100 | > 100 | > 100 | 37.9 |  |  |  |  |  |  |  |
| O=C1CCSSCCC(=O)Nc2ccccc2N1 | > 100 | > 100 | > 100 | > 100 | > 100 | > 100 | > 100 |  | > 100 | > 100 |  |  |  |  |  |  |  |
| CC(C)=CCN(N=O)c1ncnc2nc[nH]c12 | > 100 | > 100 | > 100 | > 100 | > 100 | > 100 | > 100 | > 100 |  | > 100 |  |  |  |  |  |  |  |
| CC1=NNC(N)=N/C1=C/C(Sc1ccc(Cl)cc1)c1cccs1 (stereo unspecified) | 68.2 |  | 99.7 | 82.4 | 18.2 | 46.2 | 27.8 |  | 27.4 | 67.9 |  |  |  |  |  |  |  |
| NC1=NS(=O)(=O)N=C(N)C1=Cc1ccc([N+](=O)[O-])o1 |  | 32.4 | 30.1 | 30.8 | 31.5 | 29.1 |  | 29.9 | 30.9 | 19.5 |  |  |  |  |  |  |  |
| COc1ccccc1C1C(C#N)=C(N)OC2=C1C(=O)CCC2 (stereo unspecified) | > 100 | > 100 |  |  | > 100 | > 100 |  | > 100 | > 100 | > 100 | > 100 | > 100 | > 100 | > 100 | > 100 | > 100 | > 100 |
| C=CCc1c(O)c2ccccc2[nH]c1=O | > 100 | > 100 | > 100 | > 100 | > 100 | > 100 | > 100 | > 100 |  | > 100 |  |  |  |  |  |  |  |
| CCCCN(CCCC)C(=NCc1ccccc1)NC#N |  | 35.3 | 44.4 | 47 | 18.4 | 33 |  | 95.2 | 39 | 28.3 |  |  |  |  |  |  |  |
